Molecular target: Gag-Pol polyprotein (Human immunodeficiency virus type 1 group M subtype A (isolate U455)(HIV-1), UniProt P24740)
Experiment: Integrase Assay: The effect of each compound on HIV integrase activity was assayed using the HIV-1 Integrase Assay Kit version 2.0, catalogue number EZ-1700 obtained from XpressBio Life Science Products. Immediately prior to the start of the assay, both compounds were dissolved in dimethyl sulfoxide (DMSO) and used immediately in the HIV integration assay. The assay was performed according to the instructions listed by the manufacturer (XpressBio Life Science Products, Maryland, USA). In brief, the required streptavidin-coated strip wells were coated with DS oligo and placed overnight at 4° C. The plates were then incubated with integrase and followed by the addition of test articles at the desired concentration. The plates were developed using the supplied HRP antibody and TMB peroxidase substrate as per the manufacturer's instructions. The reactions were stopped with TMB stop solution and immediately read (<10 min) using a VICTOR XXX. The absorbance of each well was read at 450 nm for 0.5 sec.

Chain of Gag-Pol polyprotein (P24740 1141-1428 limits assumed): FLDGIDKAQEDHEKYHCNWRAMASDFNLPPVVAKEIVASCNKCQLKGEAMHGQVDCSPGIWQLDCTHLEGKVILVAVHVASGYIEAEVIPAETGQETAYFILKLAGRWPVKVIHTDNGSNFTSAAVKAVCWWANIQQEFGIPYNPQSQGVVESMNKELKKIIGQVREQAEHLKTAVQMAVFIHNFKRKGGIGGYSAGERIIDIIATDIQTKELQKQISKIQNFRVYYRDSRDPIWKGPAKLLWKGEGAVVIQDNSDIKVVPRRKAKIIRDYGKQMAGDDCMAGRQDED

## Cn1cnc(-c2nnc(Cc3ccc(F)cc3)o2)c(O)/c1=N/O
  IC50: 58.7 µM

## Cn1nc(-c2nnc(Cc3ccc(F)cc3)o2)/c(=N/O)c2ncccc21
  IC50: 23.9 µM

— ChEMBL document CHEMBL3639216, “Compounds and method for treatment of HIV” (2015)
